The text below walks through data of patent US20260184693A1, “INHIBITORS OF SOLUTE CARRIER FAMILY 6A MEMBER 19 (SLC6A19) AND METHODS OF USE THEREOF” (Maze Therapeutics, Inc., priority 2022, published 2026).

Some results are limits rather than exact numbers.

Experiment [1] addresses T1, human SLC6A19 (Homo sapiens, UniProt Q695T7).
T1 construct: expressed in transfected cells
T1 sequence (Q695T7 1-634): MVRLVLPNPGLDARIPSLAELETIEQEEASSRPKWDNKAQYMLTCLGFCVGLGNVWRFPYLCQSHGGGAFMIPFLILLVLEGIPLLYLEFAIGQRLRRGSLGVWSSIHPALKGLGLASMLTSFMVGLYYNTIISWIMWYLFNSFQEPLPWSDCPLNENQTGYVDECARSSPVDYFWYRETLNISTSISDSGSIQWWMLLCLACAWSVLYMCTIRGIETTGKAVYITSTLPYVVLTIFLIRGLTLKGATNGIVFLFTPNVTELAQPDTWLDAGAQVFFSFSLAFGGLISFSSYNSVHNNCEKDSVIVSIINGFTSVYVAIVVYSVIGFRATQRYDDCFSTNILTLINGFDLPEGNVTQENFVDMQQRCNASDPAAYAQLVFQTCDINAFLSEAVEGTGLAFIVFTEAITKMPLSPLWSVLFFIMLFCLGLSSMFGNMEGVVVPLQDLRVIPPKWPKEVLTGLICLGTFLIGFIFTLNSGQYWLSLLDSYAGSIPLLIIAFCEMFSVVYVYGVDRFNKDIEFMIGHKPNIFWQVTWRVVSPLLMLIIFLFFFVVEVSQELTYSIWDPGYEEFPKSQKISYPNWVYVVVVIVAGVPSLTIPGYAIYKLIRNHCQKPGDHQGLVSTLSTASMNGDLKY
T1 sequence (Q9HBJ8 15-222 partner): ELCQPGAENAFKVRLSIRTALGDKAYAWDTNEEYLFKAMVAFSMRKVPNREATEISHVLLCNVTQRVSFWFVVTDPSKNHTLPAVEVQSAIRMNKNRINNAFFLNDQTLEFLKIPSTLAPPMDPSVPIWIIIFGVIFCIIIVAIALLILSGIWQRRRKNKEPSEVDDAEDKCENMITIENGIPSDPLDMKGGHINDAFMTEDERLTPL
The experiment in a line: Example B-1: L-[3H]leucine uptake, liquid scintillation, in CHO cells with doxycycline-inducible expression of human SLC6A19 and TMEM27. It is filed as cell-based. The note with it: read-out: SLC6A19_Radioligand Uptake Assay IC50. The procedure:
CHO cells with doxycycline-inducible expression of human SLC6A19 and TMEM27 were maintained in T150 cell culture treated flasks using cell culture media, which consisted of 1×DMEM/F12 (Gibco, 11330057), 10% Tet System-Approved FBS (Gibco, A4736401), 100 U/mL Penicillin-Streptomycin (Gibco, 15140122), 1×GlutaMAX™ Supplement (Gibco, 35050061), 1 mM Sodium Pyruvate (Gibco, 11360070), 1.1 mg/mL Sodium Bicarbonate (Gibco, 25080094), 5 μg/mL Blasticidin (InvivoGen, ant-bl-1), 150 μg/mL Hygromycin B Gold (InvivoGen, ant-hg-5), and 500 μg/mL G418 (Sigma-Aldrich, G8168-100 mL). In preparation for the assay, this media was aspirated and 5 mL of TryμLE™ Express Enzyme (Gibco, 12605010) was added to each flask to initiate cell dissociation. The flasks were then incubated (humidified, 37° C. with 5% CO2) for 2 minutes. After incubation, 10 mL of pre-warmed cell culture media was added to each flask. The cell suspension was collected and centrifuged for 5 minutes at 200xg.
The supernatant was aspirated and the pellet was resuspended in 5 mL pre-warmed cell culture media. The resuspended cells were counted using the Countess Cell Counting Chamber (Invitrogen) and the cell concentration of the suspension was readjusted to 1 million live cells/mL using pre-warmed cell culture media. 25 uL/well (25,000 cells/well) of readjusted cell suspension was dispensed into Poly-D-Lysine 384-well white/clear plates (Corning, 354660) using a MultiDrop Combi (Thermo Electron Corp). To induce expression of Human SLC6A19 and TMEM27, 25 uL/well of cell culture media containing 2 μg/mL doxycycline was added to the first 23 columns of each plate resulting in a final concentration of […] doxycycline. 25 μL/well of cell culture media was added to the last column of each plate, to act as negative control wells for Human SLC6A19 and TMEM27 expression. Assay plates were then incubated (humidified, 37° C. with 5% CO2) for 18 hours. After incubation, the media was aspirated and the wells were washed 4 times with pre-warmed HBSS (Sigma-Aldrich, H8264-1L) using an Apricot S-Pipette S2 (Apricot Designs), such that 5 uL/well HBSS was remaining at the end of each wash. […] At this step, the final in-well DMSO concentration in the assay plate is 0.5%. All compounds were plated in a duplicate 8-point dilution series that consisted of 3-fold dilutions. […] Afterwards, 15 uL/well of 3.2 mM hot:cold leucine solution (1:15000 ratio of L-[3,4,5-3H(N)] Leucine (Perkin Elmer, NET460001MC) to L-Leucine (Sigma-Aldrich, L8912-25G) diluted with HBSS (Sigma-Aldrich, H8264-1L)) was added using the Viaflo 384 (Integra), for a final concentration of 1.6 mM hot:cold leucine solution. The plates were then incubated (humidified, 37° C. with 5% CO2) for 20 minutes to conduct the uptake reaction. Immediately after the incubation, the plates were washed 4 times with HBSS (Sigma-Aldrich, H8264-1L) using the ELx405 Microplate Washer (Biotek) to terminate the uptake reaction. After the washes, 50 uL/well Ultima Gold Scintillation Cocktail (Perkin Elmer, 6013326) was added to each well using the Viaflo 384 (Integra). The plates were then incubated (humidified, 37° C. with 5% CO2) on a plate shaker at 200 rpm for 2 hours. After incubation, the plates were removed from the shaker and kept at room temperature for 15 minutes.
Liquid scintillation analysis was performed using the MicroBeta2 Microplate Counter (Perkin Elmer). Activity (%) was derived by normalizing the average of positive control compound treated wells to 0% and the average of DMSO (negative control) wells to 100%. Collaborative Drug Discovery software was used for graphing data.

For experiment [2], the target named is T1, human SLC6A19. Kind of experiment: Example B2: 13C6,15N-isoleucine uptake, RapidFire mass spectrometry, in CHO cells with doxycycline-inducible expression of human SLC6A19 and TMEM27. It is filed as cell-based. The note with it: read-out: SLC6A19_RapidFire Uptake Assay IC50. The method in brief: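 Labelled isoleucine (13C6,15N; 2 mM added) was given 20 min at 37 °C, following a 20-min compound pre-treatment (10-point 2-fold series, duplicate). Cells were doxycycline-induced CHO co-expressing human SLC6A19 and TMEM27. Intracellular label was quantified by RapidFire-MS peak areas against a 13C-leucine standard.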

For `CC(=O)N1CC[C@@H](C)[C@@H](N(C)C(=O)NCc2cc3cc(Cl)ccc3[nH]2)C1` (racemic) [Compound 203, 1-((3R,4R and 3S,4S)-1-acetyl-4-methylpiperidin-3-yl)-3-((5-chloro-1H-indol-2-yl)methyl)-1-methylurea], the 50% inhibitory concentration (IC50) on human SLC6A19 [1] came out at 2170 nM; on human SLC6A19 [2] it was 4870 nM.
For the compound `CC(=O)N1C[C@@H](C)C[C@@H](N(C)C(=O)NCc2cc3cc(Cl)ccc3[nH]2)C1` (racemic) [Compound 243, 1-((3R,5S and 3S,5R)-1-acetyl-5-methylpiperidin-3-yl)-3-((5-chloro-1H-indol-2-yl)methyl)-1-methylurea], the IC50 at human SLC6A19 [1] is 262 nM; at human SLC6A19 [2] it was 153 nM.
For `CC(=O)N1C[C@@H](N(C)C(=O)NCc2cc3cc(Cl)ccc3[nH]2)CC[C@H]1C` (single isomer, unassigned) [Compound 193, 1-((3S,6R or 3R,6S)-1-acetyl-6-methylpiperidin-3-yl)-3-((5-chloro-1H-indol-2-yl)methyl)-1-methylurea], the IC50 on human SLC6A19 [1] and at human SLC6A19 [2] was > 50000 nM each time.
As to `CN(C(=O)NCc1cc2cc(Cl)ccc2[nH]1)[C@@H]1CCCN(C(=O)C2CC(O)C2)C1` (stereo partly drawn) [Compound 119, (R)-3-((5-chloro-1H-indol-2-yl)methyl)-1-(1-(3-hydroxycyclobutane-1-carbonyl)piperidin-3-yl)-1-methylurea], the IC50 was 629 nM at human SLC6A19 [1] and 839 nM on human SLC6A19 [2].
For `CN(C(=O)NCc1cc2cc(Cl)ccc2[nH]1)[C@@H]1CCCN(C(=O)CC2CCC2)C1` [Compound 120, (R)-3-((5-chloro-1H-indol-2-yl)methyl)-1-(1-(2-cyclobutylacetyl)piperidin-3-yl)-1-methylurea], in that order: 574 nM and 949 nM.
The like results for `CN(C(=O)NCc1cc2cc(Cl)ccc2[nH]1)[C@@H]1CCCN(C(=O)C2CC(CO)C2)C1` (stereo partly drawn) [Compound 121, (R)-3-((5-chloro-1H-indol-2-yl)methyl)-1-(1-(3-(hydroxymethyl)cyclobutane-1-carbonyl)piperidin-3-yl)-1-methylurea] were, in that order, 280 nM and 405 nM.
For `CC(=O)N1CCC[C@@H](N(C)C(=O)NCc2cc3cc(Cl)c(OCc4cc(C)on4)cc3[nH]2)C1` [Compound 135, (R)-1-(1-acetylpiperidin-3-yl)-3-((5-chloro-6-((5-methylisoxazol-3-yl)methoxy)-1H-indol-2-yl)methyl)-1-methylurea], the IC50 at human SLC6A19 [1] was determined as 162 nM; on human SLC6A19 [2], 326 nM.
Turning to `CCN(C(=O)NCc1cc2cc(Cl)c(OCc3ccon3)cc2[nH]1)[C@@H]1CCCN(C(C)=O)C1` [Compound 137, (R)-1-(1-acetylpiperidin-3-yl)-3-((5-chloro-6-(isoxazol-3-ylmethoxy)-1H-indol-2-yl)methyl)-1-ethylurea], the half-inhibitory concentration (IC50) on human SLC6A19 [1] was found to be 359 nM; at human SLC6A19 [2], 273 nM.
With `CC(=O)N1CCC[C@@H](N(C)C(=O)NCc2cc3cc(Cl)ccc3[nH]2)C1` [Compound 147, (R)-1-(1-acetylpiperidin-3-yl)-3-((5-chloro-1H-indol-2-yl)methyl)-1-methylurea], the figures for the half-inhibitory concentration (IC50) at human SLC6A19 [1] and on human SLC6A19 [2] were 183 nM and 195 nM, respectively.
Consider `CCN(C(=O)NCc1cc2cc(Cl)ccc2[nH]1)[C@@H]1CCCN(C(C)=O)C1` [Compound 163, (R)-1-(1-acetylpiperidin-3-yl)-3-((5-chloro-1H-indol-2-yl)methyl)-1-ethylurea], for which the concentration for half-maximal inhibition (IC50) at human SLC6A19 [1] worked out at 145 nM; at human SLC6A19 [2] it was 49.4 nM.
As to `CNC(=O)N1CCC[C@@H](N(C)C(=O)NCc2cc3cc(Cl)ccc3[nH]2)C1` [Compound 171, (R)-3-(3-((5-chloro-1H-indol-2-yl)methyl)-1-methylureido)-N-methylpiperidine-1-carboxamide], the IC50 at human SLC6A19 [1] was 150 nM; on human SLC6A19 [2] it was 80.6 nM.
For `Cc1ocnc1C(=O)N1CCC[C@@H](N(C)C(=O)NCc2cc3cc(Cl)ccc3[nH]2)C1` [Compound 187, (R)-3-((5-chloro-1H-indol-2-yl)methyl)-1-methyl-1-(1-(5-methyloxazole-4-carbonyl)piperidin-3-yl)urea], in that order: 1230 nM and 2770 nM.
For the compound `CN(C(=O)NCc1cc2cc(Cl)ccc2[nH]1)[C@@H]1CCCN(C(=O)Cc2ccncc2)C1` [Compound 188, (R)-3-((5-chloro-1H-indol-2-yl)methyl)-1-methyl-1-(1-(2-(pyridin-4-yl)acetyl)piperidin-3-yl)urea], the IC50 came out at 656 nM on human SLC6A19 [1] and 947 nM on human SLC6A19 [2].
The like results for `CN(C(=O)NCc1cc2cc(Cl)ccc2[nH]1)[C@@H]1CCCN(C(=O)c2ccc(O)cc2)C1` [Compound 189, (R)-3-((5-chloro-1H-indol-2-yl)methyl)-1-(1-(4-hydroxybenzoyl)piperidin-3-yl)-1-methylurea] were, in that order, 264 nM and 380 nM.
For the compound `CN(C(=O)NCc1cc2cc(Cl)ccc2[nH]1)[C@@H]1CCCN(C(=O)c2cccc(O)c2)C1` [Compound 190, (R)-3-((5-chloro-1H-indol-2-yl)methyl)-1-(1-(3-hydroxybenzoyl)piperidin-3-yl)-1-methylurea], the IC50 at human SLC6A19 [1] turned out to be 483 nM; at human SLC6A19 [2], 578 nM.
The like results for `CN(C(=O)NCc1cc2cc(Cl)ccc2[nH]1)[C@@H]1CCCN(C(=O)c2ccn[nH]2)C1` [Compound 191, (R)-1-(1-(1H-pyrazole-5-carbonyl)piperidin-3-yl)-3-((5-chloro-1H-indol-2-yl)methyl)-1-methylurea] were, in that order, 151 nM and 312 nM.
`CN(C(=O)NCc1cc2cc(Cl)ccc2[nH]1)[C@@H]1CCCN(C(=O)N2CC(F)(F)C2)C1` [Compound 216, (R)-3-((5-chloro-1H-indol-2-yl)methyl)-1-(1-(3,3-difluoroazetidine-1-carbonyl)piperidin-3-yl)-1-methylurea]: the IC50 on human SLC6A19 [1] came out at 807 nM.
On the same count and under the same terms, the value for `CN(C(=O)NCc1cc2cc(Cl)ccc2[nH]1)[C@@H]1CCCN(C(=O)Cc2cnoc2)C1` [Compound 246, (R)-3-((5-chloro-1H-indol-2-yl)methyl)-1-(1-(2-(isoxazol-4-yl)acetyl)piperidin-3-yl)-1-methylurea] was 1160 nM.

Usually IC50 stands for the concentration that gives 50% inhibition.
